Biological target: T1, ribonucleotide reductase (Mus musculus, UniProt P07742+P11157)
T1 construct: endogenous in cells; host or cells: Ehrlich ascites tumor cells
T1 sequence (P07742 1-792): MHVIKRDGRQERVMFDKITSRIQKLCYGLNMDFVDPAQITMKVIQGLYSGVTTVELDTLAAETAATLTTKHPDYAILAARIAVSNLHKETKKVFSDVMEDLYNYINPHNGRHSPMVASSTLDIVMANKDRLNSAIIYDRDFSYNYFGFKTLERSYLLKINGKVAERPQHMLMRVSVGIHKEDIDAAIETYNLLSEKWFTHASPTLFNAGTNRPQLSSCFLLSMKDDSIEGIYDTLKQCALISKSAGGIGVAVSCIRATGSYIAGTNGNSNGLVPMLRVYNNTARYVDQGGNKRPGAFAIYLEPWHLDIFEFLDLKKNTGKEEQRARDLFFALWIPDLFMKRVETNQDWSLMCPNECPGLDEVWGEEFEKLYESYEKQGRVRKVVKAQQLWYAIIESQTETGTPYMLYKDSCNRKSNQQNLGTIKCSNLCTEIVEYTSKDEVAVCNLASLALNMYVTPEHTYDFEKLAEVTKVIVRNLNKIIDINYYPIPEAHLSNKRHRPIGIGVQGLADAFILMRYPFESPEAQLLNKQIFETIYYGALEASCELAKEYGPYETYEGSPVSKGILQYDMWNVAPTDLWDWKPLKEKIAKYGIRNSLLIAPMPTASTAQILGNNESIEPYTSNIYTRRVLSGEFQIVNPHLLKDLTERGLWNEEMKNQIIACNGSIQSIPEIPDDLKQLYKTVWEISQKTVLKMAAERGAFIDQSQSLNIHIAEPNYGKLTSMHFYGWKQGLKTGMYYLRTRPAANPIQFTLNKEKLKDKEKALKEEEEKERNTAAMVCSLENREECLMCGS
T1 sequence (P11157 1-390): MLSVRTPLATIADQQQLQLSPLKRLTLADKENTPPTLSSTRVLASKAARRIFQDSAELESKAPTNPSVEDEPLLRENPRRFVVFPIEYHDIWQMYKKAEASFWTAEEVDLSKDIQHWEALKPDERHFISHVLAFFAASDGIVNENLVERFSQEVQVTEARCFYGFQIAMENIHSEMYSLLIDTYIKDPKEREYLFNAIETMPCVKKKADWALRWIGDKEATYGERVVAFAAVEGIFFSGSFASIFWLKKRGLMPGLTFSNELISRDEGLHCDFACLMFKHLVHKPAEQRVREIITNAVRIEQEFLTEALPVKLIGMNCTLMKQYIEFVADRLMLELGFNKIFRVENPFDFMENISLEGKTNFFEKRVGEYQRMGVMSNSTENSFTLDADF
Experiment: In vivo ribonucleotide reductase activity
Method: CF1 male mice (~30 g) were implanted with 2×10^6 Ehrlich ascites tumor cells, intraperitoneally on Day 0. Compound I was suspended by homogenation in 0.05% polysorbate.80-water and administered intraperitoneally at 10 and 20 mg/kg for 9 days to determine its effectiveness for inhibition of tumor growth. Mice were sacrificed on Day 10, and the ascites fluid was collected from the peritoneal cavity. The volume and ascrit (packed cell volume) were determined for each animal and the percent inhibition of tumor growth was calculated. For the metabolic studies, mice were treated on Days 8 and 9 with 10 mg/kg of Compound I, intraperitoneally. […]
Carbamyl phosphate synthetase activity was determined using the reaction medium of Kalman et al [Am. […] Citrulline formed from ornithine was measured at 490 nm by the method of Archibald [J. Biol. Chem., 156, 121 (1944)]. […] The ^14 CO2 generated in 15 min was trapped in 1M KOH and counted. Thymidylate synthetase activity was determined using a post-mitochondrial supernatant (9000 g×10 min) and 5 μCi of 5-^3 H-deoxyuridine monophosphate (14 Ci/mmol) according to the method of Kampf et al [ J. Med. Chem., 19, 903 (1976)]. ^14 C-Formate incorporation into purines was determined by the method of Spassova et al [Biochem. Pharmacol., 25, 923 (1976)] using 0.5 μCi of ^14 C-formic acid (52.0 mCi/mmol). […] The Rf value for xanthine monophosphate was scraped and counted. […]

{Cu[(CH3)3 N.BH2 CO2 ]2.(CH3)3 N.BH2 COOH} [Compound I]
Ribonucleotide reductase activity: unaffected | Riboncleotide reductase activity (10 mg/kg/day I.P. on Days 8 and 9): 101 ± 8 % Control

From US4550186A, “Binuclear copper (II) carboxylates formed from amine-carboxyboranes” (Duke University, priority 1983, dated 1985)
